Source: ChEMBL document CHEMBL4808233, “Discovery and evaluation of non-basic small molecule modulators of the atypical chemokine receptor CXCR7” (Bioorg Med Chem Lett, 2021)

Legend:
[1] = Lipophilicity, logD of the compound at pH 7.4 by shake flask method; assay type: physicochemical; details: buffer
[2] = Half life in C57BL6 mouse at 5 mg/kg, sc; assay type: ADME, organism-based; details: in vivo
[3] = Half life in C57BL6 mouse at 10 mg/kg, po; assay type: ADME, organism-based; details: in vivo
[4] = Tmax in C57BL6 mouse at 10 mg/kg, po; assay type: ADME, organism-based; details: in vivo
[5] = AUC infinity in C57BL6 mouse at 2 mg/kg, iv; assay type: ADME, organism-based; set-up: time infinity, route intravenous, dose 2 mg/kg; details: in vivo
[6] = Volume of distribution at steady state in C57BL6 mouse at 2 mg/kg, iv; assay type: ADME, organism-based; details: in vivo, read-out: Vdss
[7] = Oral bioavailability in C57BL6 mouse at 10 mg/kg; assay type: ADME, organism-based; details: in vivo
[8] = Tmax in C57BL6 mouse at 5 mg/kg, sc; assay type: ADME, organism-based; details: in vivo
[9] = Cmax in C57BL6 mouse at 5 mg/kg, sc; assay type: ADME, organism-based; set-up: route subcutaneous, dose 5 mg/kg; details: in vivo
[10] = Protein binding in C57BL6 mouse plasma assessed as unbound fraction; assay type: ADME, cell-free
[11] = Bioavailability in C57BL6 mouse at 5 mg/kg, sc; assay type: ADME, organism-based; details: in vivo
[12] = Half life in C57BL6 mouse at 2 mg/kg, iv; assay type: ADME, organism-based; details: in vivo
[13] = Unbound cmax in C57BL6 mouse; assay type: ADME; details: in vivo
[14] = target: Atypical chemokine receptor 3 (Mus musculus, UniProt P56485); experiment: Binding affinity to mouse CXCR7
Chain of Atypical chemokine receptor 3 (P56485 whole entry): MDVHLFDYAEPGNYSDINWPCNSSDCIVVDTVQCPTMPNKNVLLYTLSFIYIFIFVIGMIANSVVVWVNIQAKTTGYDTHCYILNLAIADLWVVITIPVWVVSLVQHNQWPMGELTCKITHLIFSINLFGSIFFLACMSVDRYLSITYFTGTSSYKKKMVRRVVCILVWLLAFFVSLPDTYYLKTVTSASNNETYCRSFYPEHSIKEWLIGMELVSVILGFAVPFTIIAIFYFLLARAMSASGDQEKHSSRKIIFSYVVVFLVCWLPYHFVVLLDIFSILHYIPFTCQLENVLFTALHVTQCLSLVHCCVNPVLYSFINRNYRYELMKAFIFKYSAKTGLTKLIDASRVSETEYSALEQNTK

[15] = AUC infinity in C57BL6 mouse at 2 mg/kg, sc; assay type: ADME, organism-based; set-up: time infinity, route subcutaneous, dose 2 mg/kg; details: in vivo
[16] = AUC infinity in C57BL6 mouse at 10 mg/kg, po; assay type: ADME, organism-based; set-up: route oral, time infinity, dose 10 mg/kg; details: in vivo
[17] = Cmax in C57BL6 mouse at 10 mg/kg, po; assay type: ADME, organism-based; set-up: route oral, dose 10 mg/kg; details: in vivo

Row | logD [1] | half-life [2] [min] | half-life [3] [min] | Tmax [4] [min] | AUC(0-inf) [5] [ng·h/mL] | Vd [6] [L/kg] | bioavailability [7] [%] | Tmax [8] [min] | Cmax [9] [ng/mL] | fraction unbound [10] | bioavailability [11] [%] | half-life [12] [min] | fCmax [13] [µM] | Ki [14] [nM] | AUC(0-inf) [15] [ng·h/mL] | AUC(0-inf) [16] [ng·h/mL] | Cmax [17] [ng/mL] | Structure (SMILES)
1 | 3.4 | – | – | – | – | – | – | – | – | – | – | – | – | – | – | – | – | COc1ccc2cccnc2c1N1CCCN(Cc2csc(-c3ccccc3)n2)CC1
2 | 0.7 | – | – | – | – | – | – | – | – | – | – | – | – | – | – | – | – | CCc1ccn2ccnc2c1N1CCCN(CC2CCN(C(=O)[C@H]3C[C@@H]4CC[C@H]3O4)CC2)CC1
3 | – | 30 | 78 | 4.8 | 864 | 0.3 | 5 | 15 | 1550 | 0.4 | 71 | 12 | 1.56 | 155 | 1530 | 199 | 185 | CCN(C)C(=O)N1C[C@@H]2[C@H](C1)[C@H]2C(=O)N[C@H]1CCN(c2nccn3ccnc23)C1
